Patent US8741949B2, “Inhibitors of carnitin-palmitoyl-tranferase-1 for the treatment and prevention of disorders caused by delipidation of neural tissue” (Meta-IQ ApS, priority 2008, dated 2014)

How the values were obtained:
Format in all cases: in vivo, rat
Male Wistar rats [1] = assay: Y-maze short term memory test (spontaneous alternation), MK-801 induced memory loss
Protocol: (§1) Male Wistar rats were purchased from Taconic, Denmark. Animal weight was close to 300 g. The animals were singly housed. Food and water was available ad libitum.
Spontaneous alternation. A Y-maze was used to assess (without food deprivation or other aversive procedures) the normal navigation behaviors of rodents. All arm entries are sequentially scored so that the total number of arm entries, as well as the sequence of entries, are recorded. Data are analyzed to determine the number of arm entries without repetition.
On the day of testing, the rats are given subcutaneous injection of either vehicle (n=9), 0.1 mg/kg MK-801 (n=8) or 0.1 mg/kg MK-801 (also known as Dizocilpine) and the CPT-1 inhibitor Etomoxir 1 mg/kg (1 mg/ml etomoxir ester dilution in olive oil, n=5) 1 hour before the testing (to avoid the MK-801 induced hyperactivity).

Male Wistar rats [2] = assay: Passive avoidance test (long term memory), MK-801 induced memory loss; conditions: retention test 24 h later
Text: as §1
In order to test long term memory, a passive avoidance apparatus was used. The passive avoidance apparatus consist of 2 compartments: a white compartment and a black compartment, which are separated by guillotine doors. There is a lamp hanging 10 cm above the white compartment and there is a lid covering the black compartment. The black compartment contains a stainless steel grid floor.
The test was performed in the lab where the rats normally live, and all the rats were present in the room all the time during the experiment. The apparatus was placed a little bit above the floor on 2 cages. The electrical current strength was adjusted to 0.36 mA and the duration was 5 sec. […] All the rats are weighted one day before the experiment, the concentration of MK-801 per mean body weight is calculated and the dilutions are prepared
The rats are given subcutaneous injection of either vehicle (n=4), 0.1 mg/kg MK-801 (n=8) or 0.1 mg/kg MK-801 and etomoxir 1 mg/kg (1 mg/ml etomoxir ester dilution in olive oil, n=10) 1 hour before the training (to avoid the MK-801 induced hyperactivity). […] After 20 sec the doors are lifted and the time to enter the black compartment is measured. […]

Male Wistar rats [3] = assay: Chronic mild stress (CMS) model of depression, sucrose consumption test; conditions: 4 mg/kg etomoxir in oil i.p. daily
Text: For a prolonged period rats are submitted to a succession of mild stressors. Consequently rats enter a depression-like state (anhedoina), however, upon concomitant treatment with antidepressants a fraction of rats recovers over time (Jayatissa et al., 2006). Time point of onset of antidepressant action correlates well to therapeutic action in the clinic and also drug efficacy, measured as a reduction in number of rats resistant to drug treatment, is addressed in the model. Male Wistar rats were purchased from Taconic, Denmark. Animal weight was close to 200 g when adaptation for sucrose consumption was initiated, and approximately 350 g at the start of stress regime. The animals were singly housed, except when grouping was applied as a stress parameter. Food and water was available ad libitum except when food or/and water deprivation was applied as a stress parameter. The standard 12-h light/dark cycle was only changed in course of stress regime. The animals were first trained to consume a palatable sucrose solution (1.5%). The training lasted 5 weeks. In this period the sucrose test was made twice a week during the first 3 weeks and once a week during the last two weeks. […] Percentage well being is calculated as follows: Test=Average Sucrose consumption animals in test group Control=Average Sucrose used animal control group Percentage well being=(Test/control)×100%

| SMILES | Y-maze scores of the animals with nearly perfect memory (Male Wistar rats [1]; Etomoxir 1 mg/kg s.c. with 0.1 mg/kg MK-801, 1 hour before testing) | animals with nearly perfect memory (Male Wistar rats [1]; Etomoxir 1 mg/kg s.c. with 0.1 mg/kg MK-801, 1 hour before testing, n=5) | effect on the induced loss of short term memory (Male Wistar rats [1]; one subcutaneous injection, Etomoxir 1 mg/kg with 0.1 mg/kg MK-801, 1 hour before testing, FIG. 2) | animals with restored long term memory (Male Wistar rats [2]; one subcutaneous injection, etomoxir 1 mg/kg with 0.1 mg/kg MK-801, 1 hour before training, n=10, FIG. 3) | animals responding to the treatment (at least 90% of pre-stress sucrose consumption) (Male Wistar rats [3]; stressed rats n=20, FIG. 6) | time of treatment until animals responded like normal non-depressed animals (percentage well being, sucrose consumption) (Male Wistar rats [3]; stressed rats, earliest time point measured, FIG. 5) | highest Y-maze score in the group (Male Wistar rats [1]; 0.1 mg/kg MK-801 + vehicle s.c., 1 hour before testing, n=8) | animals with measurable long term memory (Male Wistar rats [2]; 0.1 mg/kg MK-801 s.c. 1 hour before training, n=8) |
| --- | --- | --- | --- | --- | --- | --- | --- | --- |
| CCOC(=O)C1(CCCCCCOc2ccc(Cl)cc2)CO1 (centres unmarked) [Etomoxir, 2-(6-(4-chlorophenoxy)hexyl)oxirane-2-carboxylic acid ethyl ester] | 92-100% | Sixty | restore the loss of short term memory | 40% | about 70% | ≤ 1 week | – | – |
| C[C@]12N[C@H](Cc3ccccc31)c1ccccc12 [MK-801] | – | – | – | – | – | – | 66% | None |
